Assay [1] has as its target T1, XPG (Homo sapiens, UniProt P28715).
T1 sequence (P28715 1-1186): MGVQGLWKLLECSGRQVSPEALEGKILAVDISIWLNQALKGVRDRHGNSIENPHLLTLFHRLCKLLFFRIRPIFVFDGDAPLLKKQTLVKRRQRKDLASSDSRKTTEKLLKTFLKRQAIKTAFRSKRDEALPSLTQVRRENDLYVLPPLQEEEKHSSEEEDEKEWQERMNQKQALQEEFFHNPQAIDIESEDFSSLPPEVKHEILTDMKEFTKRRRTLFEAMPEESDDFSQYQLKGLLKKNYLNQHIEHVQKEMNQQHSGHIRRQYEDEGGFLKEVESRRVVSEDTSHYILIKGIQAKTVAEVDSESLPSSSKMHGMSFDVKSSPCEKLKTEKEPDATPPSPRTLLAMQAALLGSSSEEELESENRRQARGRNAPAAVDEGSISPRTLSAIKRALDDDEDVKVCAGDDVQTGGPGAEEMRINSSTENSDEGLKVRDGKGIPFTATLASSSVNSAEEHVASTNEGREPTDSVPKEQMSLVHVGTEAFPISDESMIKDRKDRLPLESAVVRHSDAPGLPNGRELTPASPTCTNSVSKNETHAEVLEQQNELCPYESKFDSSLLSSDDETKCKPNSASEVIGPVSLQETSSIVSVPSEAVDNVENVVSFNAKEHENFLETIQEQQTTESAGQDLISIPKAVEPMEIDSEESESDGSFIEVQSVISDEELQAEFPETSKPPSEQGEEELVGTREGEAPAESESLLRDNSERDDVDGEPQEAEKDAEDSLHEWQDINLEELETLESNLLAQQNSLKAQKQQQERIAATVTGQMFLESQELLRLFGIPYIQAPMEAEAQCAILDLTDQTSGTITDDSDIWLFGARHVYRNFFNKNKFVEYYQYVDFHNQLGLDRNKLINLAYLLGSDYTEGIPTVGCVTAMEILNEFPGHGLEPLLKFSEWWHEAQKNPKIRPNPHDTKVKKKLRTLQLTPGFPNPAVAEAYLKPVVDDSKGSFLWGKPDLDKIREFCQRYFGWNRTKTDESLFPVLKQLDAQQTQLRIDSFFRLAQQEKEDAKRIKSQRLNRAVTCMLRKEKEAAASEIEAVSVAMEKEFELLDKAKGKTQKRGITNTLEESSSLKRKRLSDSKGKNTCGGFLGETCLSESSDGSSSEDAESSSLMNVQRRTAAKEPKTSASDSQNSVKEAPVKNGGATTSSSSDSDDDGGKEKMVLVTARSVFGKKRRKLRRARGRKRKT
The assay is described as follows: Secondary screen, fluorescence assay with XPG endonuclease. The assay is classed as biochemical. The settings on record: compound titration in the HTS assay.

Assay [2] has as its system H460 cells. The assay is described as follows: Cisplatin interstrand crosslink repair by comet assay. It is filed as cell-based. To be noted: compound 15 μM 2 h then cisplatin at IC90; 0-72 h.
Procedure: (B) After treatment, comet assay was performed as described at different time intervals (0, 24, 48 and 72 h). The percentage of interstrand crosslinks remaining was calculated using olive tail moment. Results are represented as mean ± SEM of three independent experiments.
The data is expressed as the percentage of crosslinks remaining at the time points assessed.
Cells were treated with compound (Hit control (9:1 DMSO-glycerol). After incubation at 37°C 1 or Hit 2) and cisplatin or just cisplatin alone in serum for 30 minutes, 2 μL of the pre-incubate was diluted into a free media. […] Cells were further treated with 100 μM
Cells were then trypsinized, pelleted and resuspended in 1% low melting point agarose.
In assay [3] the test system is H460 cells. The assay is described as follows: Cisplatin intrastrand adduct repair by ELISA. It is filed as cell-based. The settings on record: 72 hours (last time point), compound 15 μM 2 h then cisplatin at IC90 2 h; relative to 0 hour.
In assay [4] the test system is H460 cells. Nature of the assay: Colony survival assay in H460 cells. It is filed as cell-based. The settings on record: for IC50: Homo sapiens, NCI-H460, Fig 4C, compound 4 h, cisplatin fixed at IC50 added after 2 h, read-out: compound titration with cisplatin at the IC50, colony survival; for fold change in cisplatin IC50 in combination: combination with cisplatin; for effect of compound alone on colony survival: compound titrated alone, 4 h. As to the method: We used H460, NSCLC cells, to first assess the impact on colony survival by knocking down ERCC1-XPF in these cells. […] Next, to assess if colony survival is affected we titrated cisplatin in these cells using a fixed concentration of Hit 1(50 μM) or Hit 2 (25 and 50 μM). […] Next, we assessed cisplatin potentiation by treating cells at a fixed cisplatin concentration (cisplatin IC50 in H460 cells) with Hit 1 or 2 titration (Figure 4C, filled symbols). H460 cells were treated with compound for a total of 4 hours while cisplatin was added to the media after 2 hours of compound pre-treatment. […] We also titrated Hit 1 or Hit 2 alone in these cells and treated for 4 h. […] We also assessed the effects of Hit 2 in another NSCLC cell line (H1299), which was either ERCC1 wildtype (WT) or knockout (KO) (Figure 4E).
Colony survival assay in a total reaction volume of 2.4 mL in a six-well plate Cells were split and seeded at a density of 300-400 format. Cells were transfected for 48 hours after which cells in a 60 mm plate and incubated overnight. The next complete media was added for 24 hours. Cells were day, the cells were treated with a fixed concentration of the seeded for clones and clones were selected using standard compound (Hit 1 or Hit 2) with cisplatin titration. After methods. ERCC1 KO clones were tested for ERCC1 treatment, fresh complete medium with antibiotics was and XPF expression by Western Blot using the ERCC1 added and the cells were then allowed to form colonies. In antibodies, 8F1, FL-297, and D-10 and the XPF antibody another method, the cells were seeded onto 60mm plates 3F2/3 (Santa Cruz).
Validation of genome editing was performed alone or titrated with a fixed concentration of cisplatin by PCR amplification with Taq polymerase (NEB) of (IC50 for the cell line used). Post treatment, the cells were exon 2 within the genomic DNA using the forward allowed to form colonies. Colonies were fixed with 95% primer: 5’ […]
methanol and stained with 0.2 % crystal violet. Colonies 3’ and the reverse primer: 5’ […]
with ≥50 cells were counted using a light microscope. Cell […] 3’. PCR product was cloned […]
survival was expressed as the ratio of average number of into a linearized pCR4-TOPO vector and transformed colonies in drug treated cells versus control cells x 100. into OneShot TOP10 E. coli using the TOPO-TA Cloning The experiment was done in triplicate for each drug Kit for Sequencing (Thermofisher). Bacterial colonies concentration. We have previously published the methods were selected with ampicillin and plasmid was extracted for ERCC1 and XPF knockdowns, which were used as using standard procedures. Plasmid was sequenced by controls. Briefly, cells were seeded onto six-well plates GeneWiz using an M13R primer. Potential sites of off-target editing in coding sequences were identified during
(density 2.5 × 10^5 cells /well) in antibiotic free media. guide RNA design with the Optimized CRISPR Design Two transfections were done at 24 h interval in each cell Tool. Primers were designed to amplify the exons line to knockdown ERCC1-XPF together according to containing the potential off-target sites and PCR product the manufacturer ’s (Dharmacon’s smartpools) protocol. was sequenced by GeneWiz. A list of specific off-target Addition of lipid reagent (Dharmafect 2, Dharmacon) sites and primers used to assess these off-target effects are […]

The record followed here is article PMC5342726, “Identification of small molecule inhibitors of ERCC1-XPF that inhibit DNA repair and potentiate cisplatin efficacy in cancer cells” (Oncotarget, 2016).

Consider `Oc1cc(O)c2c(c1)OC(c1ccc(O)c(O)c1)C(O)C2c1c(O)cc(O)c2c1OC(c1ccc(O)c(O)c1)C(O)C2` (stereo not drawn) [NSC143099], for which the “effect on XPG activity” value in assay [1] was “some effect on XPG activity at higher concentrations”. For the same molecule, in assay [2], the “effect on ICL repair” value is recorded as “ICL repair was significantly reduced”. Besides, the intrastrand adducts remaining in assay [3] is on record as ~ 65%. In assay [4], the IC50 turned out to be 15 µM, the “fold change in cisplatin IC50 in combination” value is ~ 3 fold and the “effect of compound alone on colony survival” value is given as “no effect on colony survival”.
Consider `Cc1ccc(S(=O)(=O)Oc2cc(S(=O)(=O)O)cc3cc(S(=O)(=O)O)cc(N)c23)cc1` [NSC16168], for which the “effect on XPG activity” value in assay [1] is reported as “no effect”. The “effect on ICL repair” value in assay [2] was “does not have any effect on ICL repair”. In addition, the intrastrand adducts remaining in assay [3] is ~ 60%. Further, in assay [4], the IC50 came out at 4 µM, the “fold change in cisplatin IC50 in combination” value was ~ 3 fold and the “effect of compound alone on colony survival” value was “no effect on colony survival”.
